According to PMC8550792, “Evolution of kinase polypharmacology across HSP90 drug discovery” (Cell Chemical Biology, 2021):
Where “and” joins values, the source holds several entries; their conditions need not be identical. Equal values may be shown once. Read-outs that look alike come from different tables or passages of the source.

Assays:
ABL2/ARG = target: T1, ABL2/ARG (Homo sapiens, UniProt P42684); experiment: HotSpot in vitro kinase radiometric assay; format: biochemical
T1 construct: purchased Reaction Biology (HotSpot contract assay)

BLK = target: T2, BLK (Homo sapiens, UniProt P51451); experiment: HotSpot in vitro kinase radiometric assay; format: biochemical; settings: read-out: % inhibition at 10 uM: BLK; 10 μM; Fig 6C median ± standard deviation (n = 2)
T2 construct: purchased Reaction Biology (HotSpot contract assay)
Method in brief: (§1)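 Off-target screen in a radioisotope catalytic assay: test compounds incubated with each kinase, its substrate, cofactors and 33P- or 32P-labelled ɣ-ATP. Filters retaining labelled product gave the signal.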

LYN B = target: T3, LYN B (Homo sapiens, UniProt P07948); experiment: HotSpot in vitro kinase radiometric assay; format: biochemical; settings: read-out: % inhibition at 10 uM: LYN B; 10 μM; Fig 6C median ± standard deviation (n = 2)
T3 construct: purchased Reaction Biology (HotSpot contract assay)
Method in brief: as §1

PDK2/PDHK2 = target: T4, PDK2/PDHK2 (Homo sapiens, UniProt Q15119); experiment: HotSpot in vitro kinase radiometric assay; format: biochemical; settings: read-out: % inhibition at 10 uM: PDK2; 10 μM; Fig 6C median ± standard deviation (n = 2)
T4 construct: purchased Reaction Biology (HotSpot contract assay)
Method in brief: as §1

PDK4/PDKH4 = target: T5, PDK4/PDKH4 (Homo sapiens, UniProt Q16654); experiment: HotSpot in vitro kinase radiometric assay; format: biochemical; settings: read-out: % inhibition at 10 uM: PDK4; 10 μM; Fig 6C median ± standard deviation (n = 2)
T5 construct: purchased Reaction Biology (HotSpot contract assay)
Method in brief: as §1

c-Src = target: T6, c-Src (Homo sapiens, UniProt P12931); experiment: HotSpot in vitro kinase radiometric assay; format: biochemical; settings: read-out: % inhibition at 10 uM: SRC; 10 μM; Fig 6C median ± standard deviation (n = 2)
T6 construct: purchased Reaction Biology (HotSpot contract assay)
Method in brief: as §1

382 unique human kinases [1] = target: T7, 382 unique human kinases (Homo sapiens, UniProt P07332); experiment: biochemical; format: biochemical; settings: FES/FPS, 10 uM
T7 construct: purchased Reaction Biology (HotSpot contract assay)

382 unique human kinases [2] = target: T8, 382 unique human kinases (Homo sapiens, UniProt P08581, D1228H); experiment: biochemical; format: biochemical; settings: c-MET (D1228H), 10 uM
T8 construct: purchased Reaction Biology (HotSpot contract assay)

382 unique human kinases [3] = target: T9, 382 unique human kinases (Homo sapiens, UniProt P11802); experiment: biochemical; format: biochemical; settings: CDK4/cyclin D3, [ATP] 5 µM, compound 10 uM
T9 construct: purchased Reaction Biology (HotSpot contract assay)

382 unique human kinases [4] = target: T10, 382 unique human kinases (Homo sapiens, UniProt P24941); experiment: biochemical; format: biochemical; settings: 10 uM; for remaining activity at 10 µM: read-out: % Enzyme Activity (relative to DMSO controls)
T10 construct: purchased Reaction Biology (HotSpot contract assay)

382 unique human kinases [5] = target: T11, 382 unique human kinases (Homo sapiens, UniProt P31751, E17K); experiment: biochemical; format: biochemical; settings: AKT2 (E17K), 10 uM
T11 construct: purchased Reaction Biology (HotSpot contract assay)

382 unique human kinases [6] = target: T12, 382 unique human kinases (Homo sapiens, UniProt P50750); experiment: biochemical; format: biochemical; settings: CDK9/cyclin T1, 10 uM
T12 construct: purchased Reaction Biology (HotSpot contract assay)

382 unique human kinases [7] = target: T13, 382 unique human kinases (Homo sapiens, UniProt Q00534); experiment: biochemical; format: biochemical; settings: CDK6/cyclin D3, 10 uM
T13 construct: purchased Reaction Biology (HotSpot contract assay)

382 unique human kinases [8] = experiment: biochemical; format: biochemical
HSP90AB1 = test system: HSP90AB1; set-up: method as in ChEMBL23 (accessed: 23/08/2018); settings: average of reported values; ref ChEMBL23 (accessed: 23/08/2018); cited from earlier work
TRAP1 = test system: TRAP1; set-up: method as in ChEMBL23 (accessed: 23/08/2018); settings: average of reported values; ref ChEMBL23 (accessed: 23/08/2018); cited from earlier work
ABL1 = ABL1 (Homo sapiens, UniProt P00519); experiment: HotSpot in vitro kinase radiometric assay; format: biochemical; set-up: purchased Reaction Biology (HotSpot contract assay)
DDR1 = DDR1 (Homo sapiens, UniProt Q08345); experiment: HotSpot in vitro kinase radiometric assay; format: biochemical; set-up: purchased Reaction Biology (HotSpot contract assay)
[9] = 10 μM, Fig 6C median ± standard deviation (n = 2)
[10] = read-out: % Enzyme Activity (relative to DMSO controls)

Sequence of ABL1 (P00519 whole entry): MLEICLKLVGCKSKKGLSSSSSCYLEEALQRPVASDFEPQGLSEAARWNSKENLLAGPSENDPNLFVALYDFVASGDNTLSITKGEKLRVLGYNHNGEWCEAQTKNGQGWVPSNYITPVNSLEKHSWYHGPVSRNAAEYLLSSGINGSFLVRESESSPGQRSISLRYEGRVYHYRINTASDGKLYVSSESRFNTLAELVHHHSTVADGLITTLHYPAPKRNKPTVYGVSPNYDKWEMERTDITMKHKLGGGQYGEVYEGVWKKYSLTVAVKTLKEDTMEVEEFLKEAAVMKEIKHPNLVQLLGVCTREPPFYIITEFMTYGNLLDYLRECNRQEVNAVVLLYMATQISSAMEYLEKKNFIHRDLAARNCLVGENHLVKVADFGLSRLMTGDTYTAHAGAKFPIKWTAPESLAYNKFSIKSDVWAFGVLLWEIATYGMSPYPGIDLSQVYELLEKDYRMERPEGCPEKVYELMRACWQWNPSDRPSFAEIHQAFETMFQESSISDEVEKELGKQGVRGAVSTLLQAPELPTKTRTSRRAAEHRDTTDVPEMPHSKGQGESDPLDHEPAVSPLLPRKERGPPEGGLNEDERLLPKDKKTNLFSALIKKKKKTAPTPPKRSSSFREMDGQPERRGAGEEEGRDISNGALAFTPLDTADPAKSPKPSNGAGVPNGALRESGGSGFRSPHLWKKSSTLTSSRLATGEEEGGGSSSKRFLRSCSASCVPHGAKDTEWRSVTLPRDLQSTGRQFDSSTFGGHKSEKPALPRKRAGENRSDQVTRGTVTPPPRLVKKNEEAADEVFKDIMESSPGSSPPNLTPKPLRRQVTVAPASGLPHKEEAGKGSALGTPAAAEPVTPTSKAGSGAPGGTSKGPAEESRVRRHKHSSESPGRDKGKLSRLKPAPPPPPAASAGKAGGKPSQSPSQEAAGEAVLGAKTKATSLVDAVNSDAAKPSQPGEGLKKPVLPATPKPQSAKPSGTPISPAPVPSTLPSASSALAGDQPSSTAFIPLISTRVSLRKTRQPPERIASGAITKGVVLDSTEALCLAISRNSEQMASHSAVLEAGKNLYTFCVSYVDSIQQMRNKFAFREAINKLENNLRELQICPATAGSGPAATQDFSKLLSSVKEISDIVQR
T1 sequence (P42684 whole entry): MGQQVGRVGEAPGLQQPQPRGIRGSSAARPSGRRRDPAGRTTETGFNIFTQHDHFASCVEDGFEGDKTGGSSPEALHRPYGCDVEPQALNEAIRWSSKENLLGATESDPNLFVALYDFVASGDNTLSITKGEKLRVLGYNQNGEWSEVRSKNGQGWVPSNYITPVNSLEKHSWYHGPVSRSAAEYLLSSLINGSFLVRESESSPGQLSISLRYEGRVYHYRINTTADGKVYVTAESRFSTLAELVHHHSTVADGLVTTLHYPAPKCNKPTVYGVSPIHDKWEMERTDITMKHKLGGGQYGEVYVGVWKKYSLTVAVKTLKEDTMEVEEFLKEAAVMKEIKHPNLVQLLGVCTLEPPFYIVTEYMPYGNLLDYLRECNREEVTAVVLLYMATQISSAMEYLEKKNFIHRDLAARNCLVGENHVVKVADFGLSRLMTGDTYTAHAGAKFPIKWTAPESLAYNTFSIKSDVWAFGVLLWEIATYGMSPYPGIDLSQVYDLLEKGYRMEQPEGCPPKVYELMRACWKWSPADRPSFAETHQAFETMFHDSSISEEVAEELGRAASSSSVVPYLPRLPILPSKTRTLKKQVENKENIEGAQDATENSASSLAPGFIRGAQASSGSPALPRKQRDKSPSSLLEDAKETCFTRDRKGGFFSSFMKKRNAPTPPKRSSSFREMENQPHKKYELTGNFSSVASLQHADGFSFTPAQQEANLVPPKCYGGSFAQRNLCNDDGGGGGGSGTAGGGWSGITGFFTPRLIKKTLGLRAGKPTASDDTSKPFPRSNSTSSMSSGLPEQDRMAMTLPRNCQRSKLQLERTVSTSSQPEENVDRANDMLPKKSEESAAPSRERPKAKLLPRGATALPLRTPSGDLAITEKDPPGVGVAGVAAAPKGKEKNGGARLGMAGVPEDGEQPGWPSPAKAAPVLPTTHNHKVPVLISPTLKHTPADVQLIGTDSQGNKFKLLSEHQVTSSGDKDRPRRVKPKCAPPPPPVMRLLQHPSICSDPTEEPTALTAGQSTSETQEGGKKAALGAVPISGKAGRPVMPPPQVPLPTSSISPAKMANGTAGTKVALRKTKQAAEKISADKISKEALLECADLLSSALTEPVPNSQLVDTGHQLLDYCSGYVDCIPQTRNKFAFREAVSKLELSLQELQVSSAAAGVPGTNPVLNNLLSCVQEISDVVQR
Sequence of DDR1 (Q08345 19-913): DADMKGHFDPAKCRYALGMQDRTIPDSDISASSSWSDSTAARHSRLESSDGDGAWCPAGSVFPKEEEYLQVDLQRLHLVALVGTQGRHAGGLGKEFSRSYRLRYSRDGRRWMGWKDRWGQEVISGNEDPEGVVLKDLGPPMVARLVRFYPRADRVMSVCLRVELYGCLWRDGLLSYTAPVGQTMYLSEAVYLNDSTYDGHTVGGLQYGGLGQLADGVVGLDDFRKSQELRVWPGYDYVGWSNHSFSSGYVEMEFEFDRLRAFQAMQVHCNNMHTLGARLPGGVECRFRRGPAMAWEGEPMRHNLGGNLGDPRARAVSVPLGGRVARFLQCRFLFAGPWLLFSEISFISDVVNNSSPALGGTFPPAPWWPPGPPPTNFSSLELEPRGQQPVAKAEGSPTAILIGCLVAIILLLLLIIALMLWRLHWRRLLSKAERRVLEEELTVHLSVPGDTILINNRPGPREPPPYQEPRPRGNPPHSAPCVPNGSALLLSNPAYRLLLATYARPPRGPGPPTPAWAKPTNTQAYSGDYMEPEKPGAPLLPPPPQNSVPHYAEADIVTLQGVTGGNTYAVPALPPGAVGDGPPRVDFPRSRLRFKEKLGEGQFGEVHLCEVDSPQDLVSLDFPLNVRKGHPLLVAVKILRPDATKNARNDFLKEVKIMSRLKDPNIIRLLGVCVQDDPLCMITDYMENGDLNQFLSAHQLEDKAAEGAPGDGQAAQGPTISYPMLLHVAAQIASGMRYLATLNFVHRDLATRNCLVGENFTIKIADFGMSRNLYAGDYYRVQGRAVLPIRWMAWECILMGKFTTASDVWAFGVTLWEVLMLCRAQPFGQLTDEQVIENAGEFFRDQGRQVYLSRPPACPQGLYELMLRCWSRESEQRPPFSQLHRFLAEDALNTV
T11 sequence (P31751 whole entry E17K): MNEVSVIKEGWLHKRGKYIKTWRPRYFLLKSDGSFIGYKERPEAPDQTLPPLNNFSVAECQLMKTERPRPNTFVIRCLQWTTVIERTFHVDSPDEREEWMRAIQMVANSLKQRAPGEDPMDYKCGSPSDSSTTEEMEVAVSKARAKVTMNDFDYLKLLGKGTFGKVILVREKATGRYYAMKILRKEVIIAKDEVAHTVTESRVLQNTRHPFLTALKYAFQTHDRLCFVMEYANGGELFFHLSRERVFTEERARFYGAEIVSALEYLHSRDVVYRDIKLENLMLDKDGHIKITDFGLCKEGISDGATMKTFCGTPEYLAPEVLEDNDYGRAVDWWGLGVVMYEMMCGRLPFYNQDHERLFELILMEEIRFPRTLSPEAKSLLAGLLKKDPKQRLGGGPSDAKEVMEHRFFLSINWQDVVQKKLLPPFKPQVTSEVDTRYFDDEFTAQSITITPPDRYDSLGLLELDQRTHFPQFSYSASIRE
T7 sequence (P07332 whole entry): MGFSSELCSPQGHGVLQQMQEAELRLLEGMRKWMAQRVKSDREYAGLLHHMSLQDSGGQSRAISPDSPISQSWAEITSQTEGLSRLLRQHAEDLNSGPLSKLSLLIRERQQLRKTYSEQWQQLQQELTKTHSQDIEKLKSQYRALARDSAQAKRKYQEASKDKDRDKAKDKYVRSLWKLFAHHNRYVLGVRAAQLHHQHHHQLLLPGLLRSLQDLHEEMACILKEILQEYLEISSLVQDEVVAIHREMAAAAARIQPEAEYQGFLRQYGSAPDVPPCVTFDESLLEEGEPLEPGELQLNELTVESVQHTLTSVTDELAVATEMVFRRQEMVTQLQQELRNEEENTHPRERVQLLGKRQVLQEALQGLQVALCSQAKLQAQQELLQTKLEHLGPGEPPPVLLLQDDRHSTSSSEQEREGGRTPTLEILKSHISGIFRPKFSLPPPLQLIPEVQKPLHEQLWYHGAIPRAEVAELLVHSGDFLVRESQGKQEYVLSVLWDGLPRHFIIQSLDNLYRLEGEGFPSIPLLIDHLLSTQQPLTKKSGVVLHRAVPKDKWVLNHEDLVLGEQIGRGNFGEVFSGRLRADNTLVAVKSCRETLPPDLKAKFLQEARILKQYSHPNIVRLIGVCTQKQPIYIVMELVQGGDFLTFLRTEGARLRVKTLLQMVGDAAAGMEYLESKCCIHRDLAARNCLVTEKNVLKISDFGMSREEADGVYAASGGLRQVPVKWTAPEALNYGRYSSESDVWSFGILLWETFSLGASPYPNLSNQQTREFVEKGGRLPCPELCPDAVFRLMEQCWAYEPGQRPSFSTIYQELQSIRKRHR
T12 sequence (P50750 whole entry): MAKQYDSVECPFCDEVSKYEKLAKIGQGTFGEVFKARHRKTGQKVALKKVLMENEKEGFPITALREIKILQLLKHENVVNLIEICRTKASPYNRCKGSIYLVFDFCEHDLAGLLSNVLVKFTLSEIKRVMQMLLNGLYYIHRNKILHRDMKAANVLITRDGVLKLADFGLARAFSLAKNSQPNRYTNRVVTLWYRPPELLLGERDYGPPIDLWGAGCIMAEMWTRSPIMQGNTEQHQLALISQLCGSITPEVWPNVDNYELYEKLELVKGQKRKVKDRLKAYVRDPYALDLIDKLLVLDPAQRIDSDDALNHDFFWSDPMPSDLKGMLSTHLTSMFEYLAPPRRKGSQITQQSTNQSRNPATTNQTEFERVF

CCNC(=O)c1noc(-c2cc(C(C)C)c(O)cc2O)c1-c1ccc(CN2CCOCC2)cc1 [Luminespib]
% inhibition at 10 uM: ABL2 (ABL2/ARG; [9]): 92 ± 0% | HILLSLOPE (ABL2/ARG; ABL2, single replicate curves): -2.11 and -2.06 and -1.92 | IC50 (ABL2/ARG; ABL2, single replicate curves, read-out: IC50): 4.57 µM and 4.33 µM and 4.12 µM | IC50 (ABL2/ARG; radiometric 10-point concentration-response, n = 3, read-out: in vitro biochemical IC50, ABL2): 4.34 µM | inhibition at 10 µM (ABL2/ARG; read-out: % inhibition at 10 uM: ABL2, 10 μM, Fig 6C median ± standard deviation (n = 2)): > 85% | inhibition at 10 µM (BLK): 62 ± 1% | inhibition at 10 µM (LYN B): 74 ± 1% | inhibition at 10 µM (PDK2/PDHK2): 78 ± 1% | inhibition at 10 µM (PDK4/PDKH4): 71 ± 2% | inhibition at 10 µM (c-Src): 65 ± 2% | % Enzyme Activity (relative to DMSO controls) (382 unique human kinases [1]): 99.33% | remaining activity at 10 µM (382 unique human kinases [1]; [10]): 99.4% | % Enzyme Activity (relative to DMSO controls) (382 unique human kinases [2]): 91.15% | remaining activity at 10 µM (382 unique human kinases [2]; [10]): 92.4% | % Enzyme Activity (relative to DMSO controls) (382 unique human kinases [3]): 101.56% | remaining activity at 10 µM (382 unique human kinases [3]; [10]): 102% | % Enzyme Activity (relative to DMSO controls) (382 unique human kinases [4]; CDK2/Cyclin A1): 96.40% | remaining activity at 10 µM (382 unique human kinases [4]; CDK2/Cyclin A1): 97.4% | % Enzyme Activity (relative to DMSO controls) (382 unique human kinases [4]; CDK2/cyclin E): 98.18% | remaining activity at 10 µM (382 unique human kinases [4]; CDK2/cyclin E): 101% | % Enzyme Activity (relative to DMSO controls) (382 unique human kinases [5]): 96.63% | remaining activity at 10 µM (382 unique human kinases [5]; [10]): 98% | % Enzyme Activity (relative to DMSO controls) (382 unique human kinases [6]): 103.10% | remaining activity at 10 µM (382 unique human kinases [6]; [10]): 105% | % Enzyme Activity (relative to DMSO controls) (382 unique human kinases [7]): 112.00% | remaining activity at 10 µM (382 unique human kinases [7]; [10]): 113% | number of kinase off-targets inhibited by more than 50% at 10 μM (382 unique human kinases [8]; 10 μM): 14 | number of native kinases inhibited by more than 85% at 10 μM (382 unique human kinases [8]; 10 μM): two | % Enzyme Activity (relative to DMSO controls) (382 unique human kinases [8]; ALK (T1151-L1152insT), [ATP] 20 µM, compound 10 uM): 108.18% and 107.06% | % Enzyme Activity (relative to DMSO controls) (382 unique human kinases [8]; ALK-TPM3, [ATP] 15 µM, compound 10 uM): 105.28% and 105.22% | % Enzyme Activity (relative to DMSO controls) (382 unique human kinases [8]; BRAF (T599_V600insT), 10 uM): 98.93% and 97.05% | % Enzyme Activity (relative to DMSO controls) (382 unique human kinases [8]; BRAF-FAM131B (Fex2Bex9), 10 uM): 111.02% and 110.19% | % Enzyme Activity (relative to DMSO controls) (382 unique human kinases [8]; EGFR (d746-750/C797S), 10 uM): 93.95% and 93.48% | % Enzyme Activity (relative to DMSO controls) (382 unique human kinases [8]; ERBB2 (V777_G778insCG), 10 uM): 103.65% and 102.78% | % Enzyme Activity (relative to DMSO controls) (382 unique human kinases [8]; FGFR1OP-FGFR1, [ATP] 10 µM, compound 10 uM): 103.05% and 103.02% | % Enzyme Activity (relative to DMSO controls) (382 unique human kinases [8]; FLT3 (ITD), [ATP] 30 µM, compound 10 uM): 91.11% and 89.12% | In vitro screening: kinases hit / kinases screened (382 unique human kinases [8]; Figure 3): 2/382 | % Enzyme Activity (relative to DMSO controls) (382 unique human kinases [8]; KSR1 (A635F), 10 uM): 100.08% and 96.91% | % Enzyme Activity (relative to DMSO controls) (382 unique human kinases [8]; LYN B, [ATP] 20 µM, compound 10 uM): 26.10% and 25.22% | % Enzyme Activity (relative to DMSO controls) (382 unique human kinases [8]; PKCb2, 10 uM): 102.18% and 101.94% | % Enzyme Activity (relative to DMSO controls) (382 unique human kinases [8]; ROS1-GOPC, [ATP] 15 µM, compound 10 uM): 101.12% and 99.93% | % Enzyme Activity (relative to DMSO controls) (382 unique human kinases [8]; TRKA-TFG (TRK-T3), [ATP] 20 µM, compound 10 uM): 85.72% and 85.69% | % Enzyme Activity (relative to DMSO controls) (382 unique human kinases [8]; TRKA-TPM3, [ATP] 50 µM, compound 10 uM): 90.74% and 88.03% | % Enzyme Activity (relative to DMSO controls) (382 unique human kinases [8]; TRKA-TPR, [ATP] 50 µM, compound 10 uM): 90.04% and 89.94% | % Enzyme Activity (relative to DMSO controls) (382 unique human kinases [8]; c-Kit (d557-558), [ATP] 10 µM, compound 10 uM): 63.45% and 62.37% | number of off-target kinases experimentally identified, In vitro binding (KinomeSCAN) (382 unique human kinases [8]; cutoff of >85% inhibition at 10 μM, luminespib and ganetespib large kinome panel, others 16-kinase panel): 2 | pActivity, HSP90AB1 (HSP90AB1): 8.09 | pActivity, TRAP1 (TRAP1): 7.67 | % inhibition at 10 uM: ABL1 (ABL1; [9]): 93 ± 1% | HILLSLOPE (ABL1; ABL1, single replicate curves): -3.07 and -2.62 and -3.14 | IC50 (ABL1; ABL1, single replicate curves, read-out: IC50): 3.57 µM and 3.39 µM and 3.22 µM | IC50 (ABL1; radiometric 10-point concentration-response, n = 3, read-out: in vitro biochemical IC50, ABL1): 3.39 µM | inhibition at 10 µM (ABL1; read-out: % inhibition at 10 uM: ABL1, 10 μM, Fig 6C median ± standard deviation (n = 2)): > 85% | IC50 (DDR1; radiometric 10-point concentration-response, n = 3, read-out: in vitro biochemical IC50, DDR1): > 10 µM | inhibition at 10 µM (DDR1; read-out: % inhibition at 10 uM: DDR1, 10 μM, Fig 6C median ± standard deviation (n = 2)): 15 ± 1%
